Results: publication PMC9781217, “Discovery of Novel and Selective G-Protein Coupled Receptor 120 (GPR120) Agonists for the Treatment of Type 2 Diabetes Mellitus” (Molecules, 2022)
Entries after “also recorded” stand apart in the source; their conditions may differ. Like-named read-outs stand apart in the source and are kept apart here.

What was measured:
human GPR40 (hGPR40) = human GPR40 (hGPR40) (Homo sapiens, UniProt O14842); experiment: Calcium flux assay in hGPR40-expressing CHO cells
Experimental: (§1) A calcium flux assay was performed to assess the agonist activity of the test compounds against the hGPR120 (mGPR120) and hGPR40 (mGPR40) receptors. […] The medium in the wells was gently discarded, and the wells were washed with Hank’s balanced salt solution (HBSS; 100 μL per well). […] The cells were then washed thrice in HBSS and allowed to equilibrate for 10 min before conducting the assay. Test compounds dissolved in dimethyl sulfoxide were diluted in HBSS at various concentrations and added to Fluo-4 AM-containing cells, and intracellular Ca^2+ concentrations were measured using FlexStation3 Molecular Devices. The EC50 value of each compound was calculated using GraphPad Prism software (version 5.0; GraphPad Software, San Diego, CA, USA).

human GPR120 (hGPR120) = target: T1, human GPR120 (hGPR120) (Homo sapiens, UniProt Q5NUL3); experiment: Calcium flux assay in hGPR120-transfected CHO cells; details: for Selectivity: hGPR120 over hGPR40
T1 sequence (Q5NUL3 1-361): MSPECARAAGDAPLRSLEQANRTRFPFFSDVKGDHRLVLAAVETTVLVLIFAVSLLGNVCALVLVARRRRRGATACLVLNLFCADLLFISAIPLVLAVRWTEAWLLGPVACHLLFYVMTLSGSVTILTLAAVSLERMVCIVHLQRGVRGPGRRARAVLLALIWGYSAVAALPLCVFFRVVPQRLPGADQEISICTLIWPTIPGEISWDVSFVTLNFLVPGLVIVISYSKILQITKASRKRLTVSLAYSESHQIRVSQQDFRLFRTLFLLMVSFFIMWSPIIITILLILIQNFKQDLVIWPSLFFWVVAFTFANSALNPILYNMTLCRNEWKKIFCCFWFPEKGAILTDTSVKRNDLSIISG
Experimental: as §1

GPR40 = test system: GPR40; parameters: method as in ref 15-26 = [15]; PMID 22519963; doi:10.1021/jm300215x; 15. Shimpukade B. Hudson B.D. Hovgaard C.K. Milligan G. Ulven T. Discovery of a potent and selective GPR120 agonist J. Med. Chem. 2012 55 4511 4515 10.1021/jm300215x 22519963 || [16]; PMID 24881566; doi:10.1016/j.bmcl.2014.05.012; 16. Sparks S.M. Chen G. Collins J.L. Danger D. Dock S.T. Jayawickreme C. Jenkinson S. Laudeman C. Leesnitzer M.A. Liang X. Identification of diarylsulfonamides as agonists of the free fatty acid recep || [17]; PMID 27570890; doi:10.1021/acs.jmedchem.6b00685; 17. Azevedo C.M. Watterson K.R. Wargent E.T. Hansen S.V. Hudson B.D. Kepczynska M.A. Dunlop J. Shimpukade B. Christiansen E. Milligan G. Non-Acidic Free Fatty Acid Receptor 4 Agonists with Antidiabeti || [18]; PMID 27815121; doi:10.1016/j.bmcl.2016.10.054; 18. Lombardo M. Bender K. London C. Kirkland M. Mane J. Pachanski M. Geissler W. Cummings J. Habulihaz B. Akiyama T.E. Discovery of benzofuran propanoic acid GPR120 agonists: From uHTS hit to mechanis || [19]; PMID 28105282; doi:10.1021/acsmedchemlett.6b00394; 19. Adams G.L. Velazquez F. Jayne C. Shah U. Miao S. Ashley E.R. Madeira M. Akiyama T.E. Di Salvo J. Suzuki T. Discovery of Chromane Propionic Acid Analogues as Selective Agonists of GPR120 with in Vi; details: Figure 1, representative GPR120 agonists; cited from earlier work
[1] = Pharmacokinetic analysis in C57BL/6 mice; type: in vivo; details: C57BL/6 mice
Experimental: The pharmacokinetic profiles of 10k and 14d were obtained from C57BL/6 mice. […] The pharmacokinetic profiles traces were shown in the Supplementary Materials (Figure S1, see Supporting Materials).
Plasma was collected and precipitated using two volumes of acetonitrile containing an internal standard. This was followed by centrifugation at 15.680 g for 10 min after vortexing for 5 min. The supernatant was diluted with acetonitrile and 10 µL of the supernatant was analyzed by Waters LC-PDA-MS/MS to determine plasma drug levels. Pharmacokinetic parameters were determined using mean data from four mice at each time point. Statistical analysis of the data was performed using the DAS 2.1.1 statistical software program (BioVoice, Shanghai, China).

[2] = read-out: hGPR40 (EC50), calcium flux, hGPR40 CHO cells, mean of three determinations
[3] = read-out: hGPR120 (EC50), calcium flux, hGPR120 CHO cells, mean of three determinations

Chain of human GPR40 (hGPR40) (O14842 whole entry): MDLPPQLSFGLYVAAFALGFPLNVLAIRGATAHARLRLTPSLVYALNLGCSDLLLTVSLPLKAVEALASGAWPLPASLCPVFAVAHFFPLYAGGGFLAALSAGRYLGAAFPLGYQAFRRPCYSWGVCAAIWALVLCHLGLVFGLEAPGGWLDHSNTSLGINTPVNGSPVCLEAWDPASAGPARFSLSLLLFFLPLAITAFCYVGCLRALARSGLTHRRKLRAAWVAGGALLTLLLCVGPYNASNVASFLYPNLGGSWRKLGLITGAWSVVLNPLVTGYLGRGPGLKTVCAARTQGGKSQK

Compound	Selectivity (human GPR120 (hGPR120))	melting point [°C]	EC50 (human GPR40 (hGPR40)) [µM]	EC50 (human GPR120 (hGPR120)) [µM]	other results
4-(2-fluoro-4-(((4-fluoro-2′,4′-dimethyl-[1,1′-biphenyl]-2-yl)oxy)methyl)phenoxy)butanoic acid [Compound 14f]	604.0				EC50 (human GPR40 (hGPR40); [2]): 103 µM; EC50 (human GPR120 (hGPR120); [3]): 0.17 µM
4-(2-fluoro-4-(((4-fluoro-3′,5′-dimethyl-[1,1′-biphenyl]-2-yl)oxy)methyl)phenoxy)butanoic acid [Compound 14h]					EC50 (human GPR120 (hGPR120); [3]): 0.421 µM
4-(4-(((2′,4-difluoro-4′-methoxy-[1,1′-biphenyl]-2-yl)oxy)methyl)-2-fluorophenoxy)butanoic acid [Compound 14l]	665.2				EC50 (human GPR40 (hGPR40); [2]): 90.8 µM; EC50 (human GPR120 (hGPR120); [3]): 0.137 µM
O=C(O)CC1CCC2(CC1)CCN(c1cc(OC(F)(F)F)ccc1Cl)CC2 [Compound 2]					EC50 (GPR40): > 10 µM
Cc1ccc(-c2ccc(F)cc2OCc2ccc(OCCC(=O)O)cc2)cc1 [Compound 10b, 3-(4-(((4-fluoro-4′-methyl-[1,1′-biphenyl]-2-yl)oxy)methyl)phenoxy)propanoic acid]		120 to 122		0.218	
Cc1ccc(-c2ccc(F)cc2OCc2ccc(OCCCC(=O)O)cc2)cc1 [Compound 10c, 4-(4-(((4-fluoro-4′-methyl-[1,1′-biphenyl]-2-yl)oxy)methyl)phenoxy)butanoic acid]	875.6	106 to 108	113	0.129	
Cc1ccc(-c2ccc(F)cc2OCc2ccc(OCC(=O)O)c(C)c2)cc1 [Compound 10e, 2-(4-(((4-fluoro-4′-methyl-[1,1′-biphenyl]-2-yl)oxy)methyl)-2-methylphenoxy)acetic acid]	1019.5	128 to 130	141	0.139	
Cc1ccc(-c2ccc(F)cc2OCc2ccc(OCCC(=O)O)c(C)c2)cc1 [Compound 10f, 3-(4-(((4-fluoro-4′-methyl-[1,1′-biphenyl]-2-yl)oxy)methyl)-2-methylphenoxy)propanoic acid]		125 to 127		0.268	
Cc1ccc(-c2ccc(F)cc2OCc2ccc(OCCCC(=O)O)c(C)c2)cc1 [Compound 10g, 4-(4-(((4-fluoro-4′-methyl-[1,1′-biphenyl]-2-yl)oxy)methyl)-2-methylphenoxy)butanoic acid]				0.38	
Cc1ccc(-c2ccc(F)cc2OCc2ccc(OCCCCC(=O)O)c(C)c2)cc1 [Compound 10h, 5-(4-(((4-fluoro-4′-methyl-[1,1′-biphenyl]-2-yl)oxy)methyl)-2-methylphenoxy)pentanoic acid]				0.206	
O=C(O)CCCOc1ccc(COc2cc(F)ccc2-c2ccccc2F)cc1F [Compound 14c, 4-(4-(((2′,4-difluoro-[1,1′-biphenyl]-2-yl)oxy)methyl)-2-fluorophenoxy)butanoic acid]		94 to 96		0.168	
COc1ccc(-c2ccc(F)cc2OCc2ccc(OCCCC(=O)O)c(F)c2)cc1 [Compound 14e, 4-(2-fluoro-4-(((4-fluoro-4′-methoxy-[1,1′-biphenyl]-2-yl)oxy)methyl)phenoxy)butanoic acid]		103 to 105		0.26	
Cc1ccc(-c2ccc(F)cc2OCc2ccc(OCCCC(=O)O)c(F)c2)c(C)c1 [Compound 14i]	600.0		95.1	0.159	
Cc1ccc(-c2ccc(F)cc2OCc2ccc(OCCCC(=O)O)c(F)c2)c(Cl)c1 [Compound 14m, 4-(4-(((2′-chloro-4-fluoro-4′-methyl-[1,1′-biphenyl]-2-yl)oxy)methyl)-2-fluorophenoxy)butanoic acid]	419.6	105 to 107	78.6	0.187	
Cc1ccc(-c2ccc(F)cc2OCc2ccc(OCCCC(=O)O)c(F)c2)c(F)c1 [Compound 14n, 4-(4-(((2′,4-difluoro-4′-methyl-[1,1′-biphenyl]-2-yl)oxy)methyl)-2-fluorophenoxy)butanoic acid]		92 to 94		0.313	

The next lines start with results.

Selectivity (human GPR120 (hGPR120))	melting point [°C]	EC50 (human GPR40 (hGPR40)) [µM]	EC50 (human GPR120 (hGPR120)) [µM]	Compound	other results
824.7	164 to 166	76.2	0.0924	Cc1ccc(-c2ccc(F)cc2OCc2ccc(OCC(=O)O)cc2)cc1 [Compound 10a, 2-(4-(((4-fluoro-4′-methyl-[1,1′-biphenyl]-2-yl)oxy)methyl)phenoxy)acetic acid]	
1391.5	124 to 126	144	0.103	Cc1ccc(-c2ccc(F)cc2OCc2ccc(OCCCCC(=O)O)cc2)cc1 [Compound 10d, 5-(4-(((4-fluoro-4′-methyl-[1,1′-biphenyl]-2-yl)oxy)methyl)phenoxy)pentanoic acid]	
1129.5	90 to 92	87.2	0.0772	Cc1ccc(-c2ccc(F)cc2OCc2ccc(OCC(=O)O)c(F)c2)cc1 [Compound 10i, 2-(2-fluoro-4-(((4-fluoro-4′-methyl-[1,1′-biphenyl]-2-yl)oxy)methyl)phenoxy)acetic acid]	
		85.5	0.112	Cc1ccc(-c2ccc(F)cc2OCc2ccc(OCCC(=O)O)c(F)c2)cc1 [Compound 10j, 3-(2-fluoro-4-(((4-fluoro-4′-methyl-[1,1′-biphenyl]-2-yl)oxy)methyl)phenoxy)propanoic acid]	
1289.9	130 to 132	74.3	0.0576	Cc1ccc(-c2ccc(F)cc2OCc2ccc(OCCCC(=O)O)c(F)c2)cc1 [Compound 10k, 4-(2-fluoro-4-(((4-fluoro-4′-methyl-[1,1′-biphenyl]-2-yl)oxy)methyl)phenoxy)butanoic acid]	metabolic stability in vivo ([1]; pharmacokinetics, in words): higher metabolic stability than TUG-891; also recorded: excellent metabolic stability; Tmax ([1]; male, mouse, plasma, po, 10 mg/kg gavage): 30 min; Cmax ([1]; male, mouse, plasma, po, 10 mg/kg gavage, 0.5% MC, mean ± SD of four mice): 2370 ± 335 ng/mL; AUC ([1]; male, mouse, plasma, po, 10 mg/kg gavage, mean ± SD of four mice): 4250 ± 577 ng·h/mL; half-life ([1]; male, mouse, plasma, po, 10 mg/kg gavage, mean ± SD of four mice, read-out: t1/2 (converted)): 66 ± 18 min
		94.7	0.0968	Cc1ccc(-c2ccc(F)cc2OCc2ccc(OCCCCC(=O)O)c(F)c2)cc1 [Compound 10l, 5-(2-fluoro-4-(((4-fluoro-4′-methyl-[1,1′-biphenyl]-2-yl)oxy)methyl)phenoxy)pentanoic acid]	
757.7	83 to 85	68.5	0.0904	Cc1ccccc1-c1ccc(F)cc1OCc1ccc(OCCCC(=O)O)c(F)c1 [Compound 14a, 4-(2-fluoro-4-(((4-fluoro-2′-methyl-[1,1′-biphenyl]-2-yl)oxy)methyl)phenoxy)butanoic acid]	
		93.2	0.0825	Cc1cccc(-c2ccc(F)cc2OCc2ccc(OCCCC(=O)O)c(F)c2)c1 [Compound 14b, 4-(2-fluoro-4-(((4-fluoro-3′-methyl-[1,1′-biphenyl]-2-yl)oxy)methyl)phenoxy)butanoic acid]	
